Experimental data from US20210145802A1, “THERAPY FOR OPHTHALMOLOGICAL CONDITIONS” (WREN THERAPEUTICS LIMITED, priority 2018, published 2021).

Tests used:
Aβ42 fibrils = target: T1, Aβ42 fibrils (Homo sapiens, UniProt P05067); experiment: Dot-blot assay with fibril-specific OC antibody; format: biochemical; details: 2 μM Aβ42; 5-fold excess of compound; eight time points
T1 construct: […]; made in house; host or cells: E. coli BL21 Gold (DE3)
Experimental: Blotting was performed using Aβ42 fibril-specific antibody (OC, Millipore). During the time course of the aggregation of a 2 μM Aβ42 in the absence and in the presence of 5-fold excess of Netoglitazone, 4 μL Aβ42 aliquots were removed from the mixture at different time points for blotting with OC. Aβ42 aliquots were spotted onto a nitrocellulose membrane (0.2 μm, Whatman) and then the membranes were dried and then blocked with Blocking One (Nacalai tesque) before immuno-detection. OC was used according to the manufacturer's instructions. Alexa Fluor® 488-conjugated secondary antibodies (Life technologies) were subsequently added and fluorescence detection was performed using Typhoon Trio Imager (GE Healthcare).

GMC101 (Aβ worms) [1] = experiment: Automated motility assay, Aβ worms; format: in vivo, C. elegans
Experimental: GMC101 dvIs100[unc-54p::A-beta-1-42::unc-54 3′UTR+mt1-2p::GFP]. mt1-2p::GFP produces constitutive expression of GFP in intestinal cells. unc-54p::A-beta-1-42 expresses full-length human Aβ42 peptide in body wall muscle cells that aggregates in vivo. Shifting L4 or young adult animals from 20° to 24° C. causes paralysis (G. McColl et al., Utility of an improved model of amyloid-beta (Aβ1-42) toxicity in Caenorhabditis elegans for drug screening for Alzheimer's disease. Mol Neurodegener. 7, 57 (2012));
(§1) Briefly, Netoglitazone stocks (5 mM in 100% DMSO) were used at an appropriate concentration to seed 9-cm NGM plates. Plates were then placed in a laminar flow hood at room temperature (22° C.) for up to 4 hours to dry. C. elegans cultures were then transferred onto media seeded with compound as L4 stage or Day 3 for late treatments and incubated at 24° for the whole experiment. Experiments were carried out at different Netoglitazone concentrations ranging from 0.05 to 500 μM in 1% DMSO. As controls, plates seeded only with 1% DMSO were used.
(§2) All C. elegans populations were cultured at 20° C. and developmentally synchronized from a 4 h egg-lay. At 64-72 h post-egg-lay (time zero), individuals were transferred to FUDR plates, and body movements were assessed over the times indicated. At different ages, the animals were washed off the plates with M9 buffer and spread over an OP-50 unseeded 9 cm plate, after which their movements were recorded at 20 fps using a recently developed microscopic procedure (M. Perni et al., Massively parallel C. elegans tracking provides multi-dimensional fingerprints for phenotypic discovery. J. Neurosci. Methods. 306, 57-67 (2018)) for 1 min. Up to 600 animals were counted in each experiment in duplicate unless stated otherwise. […]
In order to screen for the effect of therapeutics in the most robust way, a wide field-of-view nematode-tracking platform (WF-NTP) was used, which enables the simultaneous investigation of multiple phenotypic readouts on large worm populations. […]

GMC101 (Aβ worms) [2] = experiment: ROS production (ROS-Glo H2O2 assay) in worms; format: in vivo, C. elegans; details: 5 μM; administered at L4; D5 of adulthood
Experimental: ROS-Glo™ H2O2 cell kit assay was used (Promega, Fitchburg, Wis., USA) and adapted for C. elegans studies. The ROS-Glo™ H2O2 Assay is a bioluminescent assay that measures the level of H2O2, a reactive oxygen species (ROS), directly in cell culture or tissue or in defined enzyme reactions. A derivatized luciferin substrate is incubated with sample and reacts directly with H2O2 to generate a luciferin precursor. Worms treated with 5 μM Netoglitazone in 1% DMSO or 1% DMSO only were washed using M9 buffer out the NGM plates. The buffer was then changed 3 times to remove the excess bacteria. Worm pellets were then divided in three wells and 80 μl of worm pellet (around 200 worms/well) was incubated for 6 h at RT with 20 μl of a ROS Substrate Solution (Promega, Fitchburg, Wis., USA); mild shaking at 300 rpm was used to avoid worm sedimentation; afterwards, worms were incubated for ca. 20 min with 100 μl of the detection solution; luminescence was then measured with a Clariostar (BMG Labtech, Aylesbury, UK).

GMC101 (Aβ worms) [3] = experiment: Survival rate of Aβ worms; format: in vivo, C. elegans; details: administered at D3; D5 of adulthood
Experimental: as §1

[4] = test system: CL2355 (Aβ1-42Neur worms); experiment: Automated motility assay, Aβ1-42Neur worms; format: in vivo, C. elegans; details: compared to untreated worms
Experimental: as §1, §2

[5] = test system: CL2331 (Aβ3-42::GFPMuscular worms); experiment: Automated motility assay, Aβ3-42::GFPMuscular worms; format: in vivo, C. elegans; details: compared to untreated worms
Experimental: CL2331; dvIs37 [myo-3p::GFP::A-Beta (3-42)+rol-6(su1006)] (Aβ3-42::GFPMuscular worms). Maintain at 16 C. Roller. Diffuse and aggregated GFP expression in body wall muscle. Low brood size. Sicker at higher temperatures. (C. D. Link et al., The β amyloid peptide can act as a modular aggregation domain. Neurobiol. Dis. 32, 420-425 (2008));
Briefly, Netoglitazone stocks (5 mM in 100% DMSO) were used at an appropriate concentration to seed 9-cm NGM plates. Plates were then placed in a laminar flow hood at room temperature (22° C.) for up to 4 hours to dry. […]
as §2

[6] = target: A1340 (40-residue isoform of Aβ) (Homo sapiens, UniProt P05067); experiment: A1340 aggregation kinetics; details: 10 μM A1340; 1.25-fold excess
A1340 (40-residue isoform of Aβ), sequence (P05067 672-711 limits assumed): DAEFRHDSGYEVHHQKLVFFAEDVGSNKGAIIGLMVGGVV

T1 sequence (P05067 671-713): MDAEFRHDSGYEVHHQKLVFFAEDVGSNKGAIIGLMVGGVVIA

## O=C1NC(=O)C(Cc2ccc3cc(OCc4ccccc4F)ccc3c2)S1 (stereo not drawn) [Netoglitazone]
Aβ42 fibrils
  delay of Aβ42 fibril formation in dot blot assay compared with ThT-based assay: identical within experimental error
GMC101 (Aβ worms) [1]; 0-10 μM, administered at L4
  mobility of Aβ worms after treatment at L4: greatly improves the mobility
GMC101 (Aβ worms) [1]; administered at D3, D5 of adulthood
  mobility after late administration: increase
GMC101 (Aβ worms) [1]; administered at L4, observed at D3 of adulthood
  concentration range of best protective effect on mobility: 0.5 to 5 µM
GMC101 (Aβ worms) [2]
  levels of ROS production: significantly decreased the levels of oxidative species
GMC101 (Aβ worms) [3]
  survival rate after late administration: increase
[4]
  motility of Aβ1-42Neur worms: significantly improves the motility
[5]
  motility of Aβ3-42::GFPMuscular worms: significantly improves the motility
[6]
  inhibition of A1340 aggregation: able to inhibit A1340 aggregation
